Consider 31 molecules from patent US20060264419A1 (priority 2003, published 2006).

Where two headings read alike, the source gives them in different places.

Experiment [1] concerns the target 5-HT2A receptors (Rattus norvegicus, UniProt P14842). The experiment in a line: in-vitro affinity to 5-HT2A receptors, displacement of [3H]ketanserine (Example A1). Format: binding. An excerpt: The 5-HT2A receptors are exposed both to [^3H]ketanserine (a substance which is known for its affinity to the receptor) and also to the test compound. The decrease in the affinity of [^3H]ketanserine to the receptor is an indication of the affinity of the test substance to the 5-HT2A receptor.

Experiment [2] has as its target T1, 5 HT2C receptor (Homo sapiens, UniProt P28335).
T1 sequence (P28335 33-458): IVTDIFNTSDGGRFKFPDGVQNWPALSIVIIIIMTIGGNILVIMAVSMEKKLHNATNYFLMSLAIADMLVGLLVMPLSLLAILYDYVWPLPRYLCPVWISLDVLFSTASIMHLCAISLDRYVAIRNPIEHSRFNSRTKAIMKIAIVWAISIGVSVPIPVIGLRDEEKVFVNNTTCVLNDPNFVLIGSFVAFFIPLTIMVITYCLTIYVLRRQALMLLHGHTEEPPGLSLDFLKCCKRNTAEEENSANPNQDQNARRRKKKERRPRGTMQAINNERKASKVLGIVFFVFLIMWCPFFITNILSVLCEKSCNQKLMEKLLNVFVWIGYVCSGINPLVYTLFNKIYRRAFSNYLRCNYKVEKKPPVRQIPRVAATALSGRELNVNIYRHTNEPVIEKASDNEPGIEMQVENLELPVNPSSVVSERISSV
Description: affinity to the 5 HT2C receptor. In kind it is binding.

Where [3] appears, read: target not given, description names affinity to 5-HT2A receptors, read-out: IC50.

5-HT2A receptors, sequence (P14842 whole entry): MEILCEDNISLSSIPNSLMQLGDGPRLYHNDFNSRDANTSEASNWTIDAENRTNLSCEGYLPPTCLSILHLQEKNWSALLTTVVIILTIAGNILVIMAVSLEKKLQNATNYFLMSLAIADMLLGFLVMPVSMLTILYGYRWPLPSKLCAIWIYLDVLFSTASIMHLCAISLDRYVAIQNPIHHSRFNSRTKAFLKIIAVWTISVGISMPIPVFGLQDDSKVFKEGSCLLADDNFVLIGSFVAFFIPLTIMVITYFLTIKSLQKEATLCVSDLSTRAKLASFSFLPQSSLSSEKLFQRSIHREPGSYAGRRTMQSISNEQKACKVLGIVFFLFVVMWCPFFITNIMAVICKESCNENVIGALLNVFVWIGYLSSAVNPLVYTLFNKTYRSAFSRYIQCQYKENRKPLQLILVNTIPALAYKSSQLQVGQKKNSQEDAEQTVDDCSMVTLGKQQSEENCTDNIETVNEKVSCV

Turning to `CC(C)(C)OC(=O)N1CCN(Cc2cnn(-c3ccc(C(F)(F)F)cc3)c2-c2ccccc2F)CC1` [Example 896, tert-Butyl 4-[5-(2-fluorophenyl)-1-(4-trifluoro-methylphenyl)-1H-pyrazol-4-ylmethyl]-piperazine-1-carboxylate], the IC50 in experiment [1] (read-out: HT2A IC50) is 8 nM; in experiment [2], 43000 nM.
For `OCCNCc1cnn(-c2ccc(-c3ccccc3)cc2)c1-c1ccccc1F` [Example 892, 2-{[1-Biphenyl-4-yl-5-(2-fluorophenyl)-1H-pyrazol-4-ylmethyl]amino}ethanol], the results for the IC50 in experiment [1] (read-out: HT2A IC50) and in experiment [2] were 5.2 nM and 420 nM, respectively.
The matching figures for `CN1CCCN(Cc2cnn(-c3ccc(-c4ccccc4)cc3)c2-c2ccccc2F)CC1` [Example 893, 1-[1-Biphenyl-4-yl-5-(2-fluorophenyl)-1H-pyrazol-4-ylmethyl]-4-methyl-[1,4]diazepam]: 6.4 nM and 230 nM.
For the molecule `CN1CCN(Cc2cnn(-c3ccc(-c4cc(F)ccc4F)cc3)c2-c2ccccc2F)CC1` [Example 953, 1-[1-(2′,5′-Difluorobiphenyl-4-yl)-5-(2-fluoro-phenyl)-1H-pyrazol-4-ylmethyl]-4-methyl-piperazine], the IC50 in experiment [1] (read-out: HT2A IC50) stood at 55 nM; in experiment [2], 470 nM.
Regarding `CN1CCN(Cc2cnn(-c3ccc(-c4ccccc4)cc3)c2-c2cccnc2)CC1` [Example 1035, 1-(1-Biphenyl-4-yl-5-pyridin-3-yl-1H-pyrazol-4-ylmethyl)-4-methylpiperazine], the IC50 turned out to be 290 nM in experiment [1] (read-out: HT2A IC50) and 1000 nM in experiment [2].
As to `O=C1CCCN1CCCNCc1cnn(-c2ccc(-c3ccccc3)cc2)c1-c1ccccc1F` [Example 961, 1-(3-{[1-Biphenyl-4-yl-5-(2-fluoro-phenyl)-1H-pyrazol-4-ylmethyl]amino}propyl)pyrrolidin-2-one], the figures for the IC50 in experiment [1] (read-out: HT2A IC50) and in experiment [2] were 64 nM and 1000 nM, respectively.
On to `Cc1ccc(-c2ccc(-n3ncc(CN4CCN(C)CC4)c3-c3ccccc3F)cc2)cc1` [Example 916, 1-[5-(2-Fluorophenyl)-1-(4′-methylbiphenyl-4-yl)-1H-pyrazol-4-ylmethyl]-4-methylpiperazine], for which the IC50 in experiment [1] (read-out: HT2A IC50) is 22 nM; in experiment [2] it was 960 nM.
The matching figures for `CCN1CCN(Cc2cnn(-c3ccc(-c4ccc(F)cc4)cc3)c2-c2ccccc2Cl)CC1` [Example 975, 1-[5-(2-Chlorophenyl)-1-(4′-fluoro-biphenyl-4-yl)-1H-pyrazol-4-ylmethyl]-4-ethylpiperazine]: 88 nM and 1000 nM.
In the same order, the values of `CN1CCN(Cc2cnn(-c3ccc(-c4ccccc4)cc3)c2-c2ccccc2F)CC1` [Example 926, 1-[1-Biphenyl-4-yl-5-(2-fluoro-phenyl)-1H-pyrazol-4-ylmethyl]-4-methylpiperazine] are 27.3 nM and 600 nM.
With `CCN1CCCC1CNCc1cnn(-c2ccc(-c3ccccc3)cc2)c1-c1ccccc1F` (stereo not shown) [Example 947, [1-Biphenyl-4-yl-5-(2-fluorophenyl)-1H-pyrazol-4-ylmethyl]-(1-ethyl-pyrrolidin-2-yl-methyl)amine], the IC50 in experiment [1] (read-out: HT2A IC50) stood at 46.9 nM; in experiment [2], 1000 nM.
With `O=C(c1ccc(F)cc1)C1CCN(Cc2cnn(-c3ccc(-c4ccc(F)cc4)cc3)c2-c2ccccc2Cl)CC1` [Example 1019, 1-{1-{5-(2-Chlorophenyl)-1-(4′-fluoro-biphenyl-4-yl)-1H-pyrazol-4-ylmethyl]piperidin-4-yl}-1-(4-fluorophenyl)methanone], the IC50 was 230 nM in experiment [1] (read-out: HT2A IC50) and 40 nM in experiment [2].
As for `Fc1ccccc1-c1c(CN2CCCCC2)cnn1-c1ccc(-c2ccccc2)cc1` [Example 931, 1-[1-Biphenyl-4-yl-5-(2-fluorophenyl)-1H-pyrazol-4-ylmethyl]piperidine], the values for the IC50 in experiment [1] (read-out: HT2A IC50) and in experiment [2] were 30 nM and 1000 nM, respectively.
In the same order, the values of `NCc1cnn(-c2ccc(-c3ccccc3)cc2)c1-c1ccccc1` [Example 915, C-(1-Biphenyl-4-yl-5-phenyl-1H-pyrazol-4-yl)-methylamine] are 21 nM and 920 nM.
Consider `CC(=O)NC1CCN(Cc2cnn(-c3ccc(-c4ccccc4)cc3)c2-c2ccccc2F)C1` (stereo not shown) [Example 929, N-{1-[1-Biphenyl-4-yl-5-(2-fluoro-phenyl)-1H-pyrazol-4-ylmethyl]pyrrolidin-3-yl}acetamide], for which the IC50 in experiment [1] (read-out: HT2A IC50) amounted to 29 nM; in experiment [2] it was 1000 nM.
`COCCCNCc1cnn(-c2ccc(-c3ccccc3)cc2)c1-c1ccccc1F` [Example 935, [1-Biphenyl-4-yl-5-(2-fluorophenyl)-1H-pyrazol-4-ylmethyl]-(3-methoxypropyl)amine]: the results for the IC50 in experiment [1] (read-out: HT2A IC50) and in experiment [2] were 34 nM and 1000 nM, respectively.
On to `Fc1ccccc1-c1c(CNc2ccon2)cnn1-c1ccc(-c2ccccc2)cc1` [Example 1022, [1-Biphenyl-4-yl-5-(2-fluorophenyl)-1H-pyrazol-4-ylmethyl]isoxazol-3-ylamine], for which the figures for the IC50 in experiment [1] (read-out: HT2A IC50) and in experiment [2] were 240 nM and 1000 nM, respectively.
On to `Fc1ccc(-c2ccc(-n3ncc(CN4CCN(C5CCCC5)CC4)c3-c3ccccc3Cl)cc2)cc1` [Example 1027, 1-[5-(2-Chlorophenyl)-1-(4′-fluoro-biphenyl-4-yl)-1H-pyrazol-4-ylmethyl]-4-cyclopentylpiperazine], for which the results for the IC50 in experiment [1] (read-out: HT2A IC50) and in experiment [2] were 260 nM and 1000 nM, respectively.
In the same order, the values of `CN1CCN(NCc2cnn(-c3ccc(-c4ccccc4)cc3)c2-c2ccccc2F)CC1` [Example 903, [1-Biphenyl-4-yl-5-(2-fluorophenyl)-1H-pyrazol-4-ylmethyl]-(4-methylpiperazin-1-yl)amine] are 14 nM and 470 nM.
`Cn1cccc1CNCc1cnn(-c2ccc(-c3ccccc3)cc2)c1-c1ccccc1` [Example 925, (1-Biphenyl-4-yl-5-phenyl-1H-pyrazol-4-yl-methyl)-(1-methyl-1H-pyrrol-2-ylmethyl)amine]: the IC50 in experiment [1] (read-out: HT2A IC50) came to 26 nM; in experiment [2] it was 520 nM.
In the same order, the values of `OCc1cnn(-c2ccc(-c3ccc(F)cc3)cc2)c1-c1ccc(Cl)cc1` [Example 933, [5-(4-Chlorophenyl)-1-(4′-fluoro-biphenyl-4-yl)-1H-pyrazol-4-yl]methanol] are 31 nM and 1000 nM.
Regarding `CN1CCN(Cc2cnn(-c3ccc(-c4ccccc4F)cc3)c2-c2ccc(F)cc2)CC1` [Example 1013, 1-[1-(2′-Fluorobiphenyl-4-yl)-5-(4-fluoro-phenyl)-1H-pyrazol-4-ylmethyl]-4-methyl-piperazine], the IC50 was determined as 210 nM in experiment [1] (read-out: HT2A IC50) and 1000 nM in experiment [2].
With `Nc1ccncc1NCc1cnn(-c2ccc(-c3ccccc3)cc2)c1-c1ccccc1F` [Example 1006, N3-[1-Biphenyl-4-yl-5-(2-fluoro-phenyl)-1H-pyrazol-4-ylmethyl]pyridine-3,4-diamine], in experiment [1] (read-out: HT2A IC50), the IC50 was determined as 180 nM.
In the case of `CN1CCN(NCc2cnn(-c3ccc(-c4ccc(F)cc4)cc3)c2-c2ccccc2)CC1` [Example 974, [1-(4′-Fluorobiphenyl-4-yl)-5-phenyl-1H-pyrazol-4-ylmethyl]-(4-methyl-piperazin-1-yl)amine], the IC50 in experiment [1] (read-out: HT2A IC50) came to 87 nM.
For `CC(C)(C)OC(=O)N1CCN(Cc2cnn(-c3ccc(C(F)(F)F)cc3)c2-c2ccccc2F)CC1` [(84), tert-Butyl 4-[5-(2-fluorophenyl)-1-(4-trifluoromethyl-phenyl)-1H-pyrazol-4-ylmethyl]piperazine-1-carboxylate], the IC50 in experiment [1] (setting [3]) stood at 8 nM.
On to `CNC(=O)CNCc1cnn(-c2ccc(-c3ccccc3)cc2)c1-c1ccccc1F` [(130), 2-{[1-Biphenyl-4-yl-5-(2-fluorophenyl)-1H-pyrazol-4-ylmethyl]-amino}-N-methylacetamide], for which, in experiment [1] (setting [3]), the IC50 is 600 nM.
`COCCCNCc1cnn(-c2ccc(-c3ccccc3)cc2)c1-c1ccccc1F` [(26), [1-Biphenyl-4-yl-5-(2-fluorophenyl)-1H-pyrazol-4-ylmethyl]-(3-methoxypropyl)amine]: in experiment [1] (setting [3]), the IC50 was found to be 34 nM.
Regarding `Fc1ccccc1-c1c(CNCCc2c[nH]cn2)cnn1-c1ccc(-c2ccccc2)cc1` [Example 1002, [1-Biphenyl-4-yl-5-(2-fluorophenyl)-1H-pyrazol-4-ylmethyl]-[2-(1H-imidazol-4-yl)-ethyl]amine], the IC50 in experiment [1] (read-out: HT2A IC50) worked out at 170 nM.
With `OC1CCN(Cc2cnn(-c3ccc(-c4ccccc4)cc3)c2-c2ccccc2F)CC1` [(81), 1-[1-Biphenyl-4-yl-5-(2-fluorophenyl)-1H-pyrazol-4-ylmethyl]-piperidin-4-ol], in experiment [1] (setting [3]), the IC50 turned out to be 430 nM.
Take `O=C(NCCO)C1CCN(Cc2cnn(-c3ccc(-c4ccccc4)cc3)c2-c2ccccc2F)CC1` [Example 1030, N-(2-Hydroxyethyl)-1-[1-biphenyl-4-yl-5-(2-fluorophenyl)-1H-pyrazol-4-ylmethyl]piperidine-4-carboxamide]: the 50% inhibitory concentration (IC50) in experiment [1] (read-out: HT2A IC50) came out at 270 nM.
With `CC(C)(C)OC(=O)N1CCN(Cc2cnn(-c3ccc(-c4ccccc4)cc3)c2-c2ccccc2F)CC1` [(54), tert-Butyl 4-[1-Biphenyl-4-yl-5-(2-fluorophenyl)-1H-pyrazol-4-ylmethyl]piperazine-1-carboxylate], the concentration for half-maximal inhibition (IC50) in experiment [1] (setting [3]) came out at 82 nM.
On the same count and under the same terms, under `Cc1cnc(NCc2cnn(-c3ccc(-c4ccccc4)cc3)c2-c2ccccc2F)s1` [(178), [1-Biphenyl-4-yl-5-(2-fluorophenyl)-1H-pyrazol-4-ylmethyl]-(5-methylthiazol-2-yl)amine] stands 370 nM.
